The source of these data is patent US20230107742A1, “SYNERGISTIC EFFECTS, AUGMENTING ANTIMICROBAL EFFECTS OF LIPIDS” (CAPRETTO EHF., priority 2016, published 2023).

Assay [1] relates to Enveloped viruses, such as HSV-1, VSV and visna virus. The conditions noted are these: more active than the free acid; cited from earlier work.
In assay [2] the test system is Staphylococcus aureus (ATCC 25923). As to the kind of experiment: Agar petri dish test, plates wetted with 20 μl formulation, read after 24 hours. The following applies: ethanol 5% in mPEG 95% (control).
Protocol: Formulations according to the invention were tested towards three bacterial strains: Staphylococcus aureus (ATCC 25923), Streptococcus pneumoniae (ATCC 49619), Haemophilus influenza (NCTC 8468). The bacteria were distributed in a thin layer across a petri dish with agar. Two plates were wetted with 20 μl of each formulation. The bacteria were allowed to grow at 37° C. for 24 hours. H. influenzae and S. pneumoniae were grown under CO2, but S. aureus was grown in normal atmosphere.
Readings of results were carried out 24 hours later.
Assay [3] deals with Streptococcus pneumoniae (ATCC 49619). The assay is described as above. The conditions noted are these: ethanol 5% in mPEG 95% (control).
Assay [4] has as its system Haemophilus influenza (NCTC 8468). The assay is described as above. It counts as cell-based. The conditions noted are these: ethanol 5% in mPEG 95% (control).

With `CCCCCCCCCC(=O)OCC(O)CO` (centres unmarked) [Capric acid 1-monoglyceride, capric acid 1-monoglyceride], the “virucidal activity relative to the corresponding free fatty acid (capric, lauric acid)” value in assay [1] is 10 fold.
For the molecule `CCO` [ethanol], in assay [2], the “effect of ethanol alone against Staphylococcus aureus” value is reported as “essentially no effect”. Also, in assay [3], the “effect of ethanol alone against Streptococcus pneumoniae” value is “essentially no effect”. Also, the “effect of ethanol alone against Haemophilus influenza” value in assay [4] is “essentially no effect”.
Take `CCCCCCCCCCCC(=O)OCC(O)CO` (centres unmarked) [lauric acid 1-monoglyceride]: the “virucidal activity relative to the corresponding free fatty acid (capric, lauric acid)” value in assay [1] is recorded as 10 fold.
